pIC50, pKi: −log10 of the molar value. Activity calls are given as the source filed them. The calls are words filed in the database; no cut-off is given here.
How the values were obtained:
[1] = system: Trypanosoma cruzi; test: Antitrypanosomal activity against amastigote stage of Trypanosoma cruzi Dm28c infected in African green monkey Vero cells assessed as growth inhibition at 4 times IC50 incubated 8 hrs post infection measured after 24 hrs relative to control; format: functional
[2] = target: Cruzipain (Trypanosoma cruzi) (UniProt P25779); test: Inhibition of Trypanosoma cruzi cruzipain using Z-Phe-Arg-AMC as substrate at 0.3 uM incubated for 5 mins prior to substrate addition measured after 10 mins by fluorescence assay
[3] = target: Cruzipain (Trypanosoma cruzi) (UniProt P25779); test: Reversible inhibition of Trypanosoma cruzi cruzipain at 10 uM pre-incubated for 30 mins
[4] = system: Trypanosoma cruzi; test: Antitrypanosomal activity against amastigote stage of Trypanosoma cruzi Dm28c infected in African green monkey Vero cells assessed as growth inhibition at 2 times IC50 incubated 8 hrs post infection measured after 24 hrs relative to control; format: functional
[5] = Selectivity index, ratio of CC50 for African green monkey Vero cells to IC50 for epimastigote stage of Trypanosoma cruzi Dm28c; format: functional
[6] = target: T1, Cruzipain (Trypanosoma cruzi, UniProt P25779); test: Non-competitive inhibition of Trypanosoma cruzi cruzipain using Z-Phe-Arg-AMC as substrate assessed as function of velocity after 30 mins
[7] = system: Trypanosoma cruzi; test: Antitrypanosomal activity against amastigote stage of Trypanosoma cruzi Dm28c infected in African green monkey Vero cells assessed as growth inhibition at IC50 incubated 8 hrs post infection measured after 24 hrs relative to control; format: functional
[8] = system: Trypanosoma cruzi; test: Antitrypanosomal activity against epimastigote stage of Trypanosoma cruzi Dm28c infected in African green monkey Vero cells after 72 hrs relative to untreated control; format: functional, organism-based
[9] = target: Cruzipain (Trypanosoma cruzi) (UniProt P25779); test: Inhibition of Trypanosoma cruzi cruzipain using Z-Phe-Arg-AMC as substrate at 2 uM incubated for 5 mins prior to substrate addition measured after 10 mins by fluorescence assay
[10] = target: Cruzipain (Trypanosoma cruzi) (UniProt P25779); test: Inhibition of Trypanosoma cruzi cruzipain using Z-Phe-Arg-AMC as substrate at 10 uM incubated for 5 mins prior to substrate addition measured after 10 mins by fluorescence assay
[11] = target: Cruzipain (Trypanosoma cruzi) (UniProt P25779); test: Slow binding inhibition of Trypanosoma cruzi cruzipain using Z-Phe-Arg-AMC as substrate at 5 to 500 nM after 30 mins by fluorescence assay
[12] = Cytotoxicity against African green monkey Vero cells after 72 hrs by resazurin assay; format: cell-based; settings: chlorocebus sabaeus
[13] = target: T1, Cruzipain; test: Non-competitive inhibition of Trypanosoma cruzi cruzipain using Z-Phe-Arg-AMC as substrate assessed as function of Vmaxapp after 30 mins
[14] = system: Trypanosoma cruzi; test: Antitrypanosomal activity against amastigote stage of Trypanosoma cruzi Dm28c infected in African green monkey Vero cells assessed as growth inhibition at 15 uM incubated 8 hrs post infection measured after 24 hrs relative to control; format: functional; settings: read-out: GI
[15] = system: Trypanosoma cruzi; test: Antitrypanosomal activity against amastigote stage of Trypanosoma cruzi Dm28c infected in African green monkey Vero cells assessed as growth inhibition at 1 uM incubated 8 hrs post infection measured after 24 hrs relative to control; format: functional; settings: read-out: GI
[16] = system: Trypanosoma cruzi; test: Antitrypanosomal activity against amastigote stage of Trypanosoma cruzi Dm28c infected in African green monkey Vero cells assessed as growth inhibition at 30 uM incubated 8 hrs post infection measured after 24 hrs relative to control; format: functional; settings: read-out: GI

T1 sequence (P25779 whole entry): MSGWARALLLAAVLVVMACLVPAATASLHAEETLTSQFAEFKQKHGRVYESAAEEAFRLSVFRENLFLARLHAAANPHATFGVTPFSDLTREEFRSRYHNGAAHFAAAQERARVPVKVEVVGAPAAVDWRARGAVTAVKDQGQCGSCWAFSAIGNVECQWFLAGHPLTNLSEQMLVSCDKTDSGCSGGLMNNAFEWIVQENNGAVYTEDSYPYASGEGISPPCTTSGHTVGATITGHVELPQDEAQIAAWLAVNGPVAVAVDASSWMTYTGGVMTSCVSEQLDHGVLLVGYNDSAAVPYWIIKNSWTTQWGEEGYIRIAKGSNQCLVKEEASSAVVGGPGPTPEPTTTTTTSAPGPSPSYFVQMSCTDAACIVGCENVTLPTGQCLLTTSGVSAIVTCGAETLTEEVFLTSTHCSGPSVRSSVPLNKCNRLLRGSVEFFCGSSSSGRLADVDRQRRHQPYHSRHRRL
Sequence of Cruzipain (Trypanosoma cruzi) (P25779 123-467 limits assumed): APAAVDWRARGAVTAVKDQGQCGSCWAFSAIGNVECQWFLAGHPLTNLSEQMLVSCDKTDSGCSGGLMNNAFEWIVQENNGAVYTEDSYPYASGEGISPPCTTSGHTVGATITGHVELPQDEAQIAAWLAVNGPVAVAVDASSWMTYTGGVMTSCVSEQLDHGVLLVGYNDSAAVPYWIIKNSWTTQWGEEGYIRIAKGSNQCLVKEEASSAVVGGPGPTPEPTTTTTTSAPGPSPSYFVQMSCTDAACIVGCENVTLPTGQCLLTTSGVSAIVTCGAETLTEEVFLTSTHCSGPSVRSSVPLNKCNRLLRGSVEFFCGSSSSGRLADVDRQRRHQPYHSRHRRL

SMILES	growth inhibition (GI) [1] [%]	inhibition [2] [%]	inhibition [3]	growth inhibition (GI) [4] [%]	Ratio CC50/IC50 [5]	pKi [6]	growth inhibition (GI) [7] [%]	pIC50 [8]	inhibition [9] [%]	inhibition [10] [%]	inhibition [11]	CC50 at 72 h [12] [µM]	pKi [13]	inhibition of growth at 15 µM [14] [%]	inhibition of growth at 1 µM [15] [%]	inhibition of growth at 30 µM [16] [%]
C/C(=N\NC(N)=[Se])c1cccc(Br)c1	78	81	Active	77	39	7.53	76	5.92	87	98	Active	46.4				
CCCC/C(=N/NC(N)=[Se])c1ccc(Cl)c(Cl)c1	74	95		73	25	8.43	66	5.49	98	100	Active	81.8	8.19			
NC(=[Se])N/N=C/c1cccc(C(F)(F)F)c1	74	24		70	44		34	5.42	88	91		167				
C/C(=N/NC(N)=S)c1cccc(Br)c1		24				6.85			79	80						
NC(=[Se])N/N=C/c1ccc(Cl)c(Cl)c1	72	57		69	41		63	5.64	96	99		95.1				
NC(=[Se])N/N=C/c1cccc(Br)c1		40			29			5.23	93	93		172				
NC(=[Se])NN=C(c1cccc(Br)c1)c1cccc(Br)c1		90			14	7.88		5.28	98	99	Active	71.2				
O=C(Cn1ccnc1[N+](=O)[O-])NCc1ccccc1 [BENZNIDAZOLE]					25			4.90				309		77	27	85

Reference: ChEMBL document CHEMBL3217446, “Selenosemicarbazones as potent cruzipain inhibitors and their antiparasitic properties against Trypanosoma cruzi” (Medchemcomm, 2012)
